According to patent US20240124539A1, “CROSSLINKED HELIX DIMER MIMICS OF SOS AND METHODS OF USING SAME” (NEW YORK UNIVERSITY, priority 2020, published 2024):
Positions of bridges follow the written chain, without caps; N, C: chain ends. Non-standard residues stand in square brackets, D forms with d. Residues, ends and D or L forms follow the SMILES beside them. Chains are numbered I, II in the order given. No end group written: not given here. dibenzylether crosslinker = scaffold alkylating both cysteine thiols (drawn in Scheme 1 and; hArg = N=C(N)NCCCC[C@H](N)C(=O)O; DZ = diazirine photocrosslinker

Assays:
[1] = test system: H358 cells; test: Photoaffinity labeling with quantitative MS-based proteomics in H358 cells; assay type: cell-based, Homo sapiens; conditions: TMT abundance, negative control diazirine probe
Protocol: H358 cells were grown to 80-95% confluence in 10 cm plates with FBS-supplemented RPMI-1640. The growth medium was aspirated and the cells were washed with Dulbecco's phosphate-buffered saline (DPBS). The cells were then incubated with serum-free medium containing probes DZ2-CHC^Sos-5 (20 μM in RPMI-1640 with 0.4% DMSO, two replicates) or control probe CP-2-66 (20 μM in RPMI-1640 with 0.4% DMSO, four replicates) for 4 hours at 37° C. under an atmosphere of 5% CO2 before being irradiated under UV light (365 nm, 30 min, 4° C.). The cells were washed with DPBS, scraped and transferred to 1.5 mL Eppendorf tubes, pelleted, and stored at −80° C. until the next step.
Cell pellets were resuspended in 500 μL of DPBS and lysed by sonication (15 ms on, 40 ms off, 15% amplitude, 1 s total on×2). Protein concentrations were normalized (1-2 mg/mL; final volume of 500 μL with DPBS) using the Lowry Protein Assay (Pierce). To each sample was added solutions of tris((1-benzyl-4-triazolyl)methyl)amine (30 μl, 1.7 mM in DMSO/t-BuOH 1:4 v/v), tris(2-carboxyethyl)phosphine (10 μL, 50 mM), biotin-PEG3-azide (5 μL, 100 μM), and CuSO4 (10 μL, 50 mM) and the samples were shaken at room temperature for 1 hour. A cold MeOH/CHCI3 mixture (2.5 mL, 4:1 v/v) was added to each lysate, followed by 1 mL of cold DPBS. The resulting mixture was vortexed and centrifuged (4,700× g, 10 min, 4° C.). The organic and aqueous layers were aspirated, and the remaining protein disk was further washed via sonication in cold MeOH/CHCl3 solution (2 mL, 4:1) and pelleted by centrifugation (4,700× g, 10 min, 4° C.). The protein pellet was aspirated and combined with freshly prepared urea solution (500 μL, 6 M in DPBS) and a solution of SDS (with 10 μL of 10% w/v) by sonication. A freshly prepared 1:1 solution (50 μL) of TCEP (200 mM in DPBS) and K2CO3 (600 mM in DPBS) was added and the mixture was incubated for 30 min at 37° C. with shaking. A solution of freshly prepared iodoacetamide (70 μL, 400 mM in DPBS) was added and the mixture was incubated at RT in the absence of light. Each sample was combined with a solution of SDS (130 μL, 10% in DPBS w/v) followed by DPBS (5.5 mL) and incubated with pre-equilibrated streptavidin-agarose beads (100 μL of a 50% slurry; Pierce) for 1.5 hours at RT while rotating. The streptavidin beads were pelleted by centrifugation (750 g, 2 min, 4° C.) and sequentially washed with SDS solution (1×5 mL, 0.2% in DPBS), DPBS (2×5 mL), and triethylammonium bicarbonate buffer (1×5 mL, TEAB, 100 mM, pH 8.4). The beads were resuspended in TEAB (0.5 mL, 100 mM pH 8.5) and transferred into LoBind microcentrifuge tubes. The tube was washed once more with TEAB (0.5 mL, 100 mM pH 8.5) to ensure complete transfer of the beads, which were then pelleted by centrifugation (750× g, 2 min, 4° C. and the supernatant aspirated. Each sample of beads was combined with a solution of CaCl2 (2 μL, 100 mM) and a solution of sequencing-grade porcine trypsin (2 μg, Promega in 200 μL TEAB, 100 mM, pH 8.4), and incubated for 14 hours at 37° C.with shaking. The beads were pelleted by centrifugation (750× g, 2 min, 4° C.) and the supernatants were transferred to new
LoBind micro-centrifuge tubes. Each digested sample was TMT 10plex labeled (Thermo Fisher Scientific): for each sample a stock solution of TMT reagent (8 μL, 20 μg/μL) was added along with dry MS-grade acetonitrile (final acetonitrile concentration 30% v/v), followed by incubation at RT for 1 hour. The reaction was quenched by adding hydroxylamine (6 μL) and left to stand for 15 min, followed by the addition of formic acid (5 μL). Each TMT-labeled sample was dried via vacuum centrifugation, and the samples were combined by redissolving one sample in a solution of trifluoroacetic acid (TFA, 200 μL, 0.1% in water) and transferring the solution into each sample tube until all samples were redissolved. […]

[2] = target: T1, wild-type His6-tagged H-Ras (1-166) pre-loaded with GDP (Homo sapiens, UniProt P01112); test: Fluorescence polarization binding assay, wild-type H-Ras-GDP
T1 construct: wild-type and mutant His6-tagged H-Ras (1-166) pre-loaded with GDP; made in house; host or cells: Escherichia coli (BL21)
Description: GTP of the Ras-specific nucleotide exchange factor SOS. Cell 112, 685-695 (2003).

[3] = target: T2, H-Ras (Homo sapiens, UniProt P01112); test: Photoaffinity labeling of purified H-Ras and tryptic digest MS; assay type: binding; conditions: 5 eq. probe, UV light, trypsin digest
T2 construct: Wild-type and mutant N-terminal His6-H-Ras (residues 1-166) in pProEx HTb expression vector; His6 (N, cleaved yes); made in house; host or cells: Escherichia coli (BL21)
Protocol: For each experiment, a sample of 250 μM diazirine-labeled CHD peptide was
Incubated samples were then photo-irradiated for 5 minutes at 24 °C. Photo-conjugated samples were then mixed with 1× SDS-PAGE loading buffer containing 5% 2-mercaptoethanol (200 μL final volume) and heated at 95° C. for 5 minutes. Heated samples were then separated via SDS-PAGE gel electrophoresis on a 1.0 mm 15% polyacrylamide gel. The resulting gel was stained with Coomassie Brilliant Dye and subsequently destained (40% MeOH/10% acetic acid/50% water).
In-gel tryptic digest was conducted with the In-Gel tryptic Digestion Kit (Thermo Scientific) according the manufacturer's instructions. Upon photoaffinity labeling, the conjugated band was isolated as a 1×1 mm segment for in-gel trypsin digest. The isolated gel band was then incubated with 200 μL of Coomassie destaining solution (25 mM ammonium bicarbonate in 1:1 ultrapure water:acetonitrile) for 30 minutes at 37 °C. After incubation, destaining buffer was removed, and the destaining step was repeated twice more. The destained gel band was treated with reducing buffer (25 mM of ammonium bicarbonate, 50 mM TCEP) for 10 minutes at 60° C. After discarding the reducing buffer, the band was treated with 200 μL of iodoacetamide alkylation solution (25 mM ammonium bicarbonate, 100 mM iodoacetamide) for 30 minutes at 37° C. while shaking in the dark. […]

In the case of C#CCCC1(CCC(=O)NC)N=N1 [CP-266], the “Average Abundance CP-266” value ([1]; enriched protein AHSA1 (O95433)) is reported as 157, the “Average Abundance CP-266” value ([1]; enriched protein EEF1D (P29692)) is reported as 614 and the “Average Abundance CP-266” value ([1]; enriched protein HNRNPR (O43390)) is reported as 1745. The “Average Abundance CP-266” value ([1]; enriched protein PMVK (Q15126)) was 177, the “Average Abundance CP-266” value ([1]; enriched protein PPP4C (P60510)) was 60 and the “Average Abundance CP-266” value ([1]; enriched protein STK26 (Q9P289)) was 170.
CC[C@H](C)[C@H](NC(=O)[C@H](Cc1ccccc1)NC(C)=O)C(=O)NCC(=O)N[C@@H](CCCNC(=N)N)C(=O)N[C@@H](CC(C)C)C(=O)N[C@@H](CSCc1ccc(COCc2ccc(CSC[C@H](NC(=O)[C@H](CC(C)C)NC(=O)[C@H](CCCNC(=N)N)NC(=O)[C@H](C)NC(=O)[C@H](CC(C)C)NC(=O)[C@H](CCC(=O)O)NC(=O)[C@H](CCCNC(=N)N)NC(=O)[C@H](CCC(=O)O)NC(=O)[C@H](CC(C)C)NC(=O)[C@H](CCC(=O)O)NC(=O)[C@H](CCCNC(=N)N)NC(=O)[C@H](CC(C)C)NC(=O)[C@H](CCCNC(=N)N)NC(=O)[C@H](Cc3c[nH]c4ccccc34)NC(=O)[C@H](C)NC(=O)[C@H](CC(C)C)NC(C)=O)C(N)=O)cc2)cc1)C(=O)N[C@H](C(=O)N[C@@H](CC(N)=O)C(=O)N[C@H](C(=O)N[C@@H](CC(C)C)C(=O)N[C@@H](CCCCN)C(=O)N[C@@H](CC(C)C)C(=O)N[C@@H](CCCNC(=N)N)C(=O)N[C@@H](CCC(=O)O)C(=O)NCC(=O)N[C@@H](CC(N)=O)C(N)=O)[C@@H](C)CC)[C@@H](C)O [CHC^Sos-1] (HELM PEPTIDE1{[ac].F.I.G.R.L.C.T.N.I.L.K.L.R.E.G.N.[am]}|PEPTIDE2{[ac].L.A.W.R.L.R.E.L.E.R.E.L.A.R.L.C.[am]}|CHEM1{[c1cc(C[*:1])ccc1COCc1ccc(C[*:2])cc1]}$PEPTIDE1,CHEM1,7:R3-1:R1|PEPTIDE2,CHEM1,17:R3-1:R2$$$V2.0) was tested, and the Kd [2] was 32 ± 6 µM.
For “DZ1-CHC^Sos-5: CHD^Sos-5 with diazirine photocrosslinker at N-terminus of αI helix: DZ-GLAWRLRELERELARLC-NH2 (chain 1 WIGRLCTEI[hArg]RLRNGN; chain 2 {DZ}-GLAWRLRELERELARLC-NH2; linker I:6-II:17 via dibenzylether crosslinker)”, the “Ras binding site by photo-crosslinking” value [3] was “photo-crosslinked with the Ras hinge region”.
